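All cell lines were grown in 96-well plates and treated with compound for 48 hours. GI50 is the concentration that inhibits growth by half.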 The source made the active and inactive calls. Rule as the data show it: active = GI50 up to about 1.1 µM and inactive = higher.
Columns and labels:
Assay in all cases: DTP human tumour cell line panel, 48 h
SK-MEL-28 = test system: SK-MEL-28
786-0 = test system: 786-0
ACHN = test system: ACHN
U-251 = test system: U-251
MDA-MB-435 = test system: MDA-MB-435
SF-268 = test system: SF-268
KM12 = test system: KM12
COLO 205 = test system: COLO 205
SR = test system: SR
LOX IMVI = test system: LOX IMVI
DU-145 = test system: DU-145
MDA-MB-231 = test system: MDA-MB-231
NCI-H226 = test system: NCI-H226
A498 = test system: A498
SK-MEL-5 = test system: SK-MEL-5
OVCAR-5 = test system: OVCAR-5
MDA-N = test system: MDA-N
NCI/ADR-RES = test system: NCI/ADR-RES
MCF7 = test system: MCF7
RXF 393 = test system: RXF 393

SMILES: C=C1CC(COc2cc(=O)oc3ccccc23)(c2ccccc2)OC1=O (centres undefined)
- GI50 (SK-MEL-28): 2.41 µM (inactive)
- GI50 (786-0): 1.51 µM (inactive)
- GI50 (ACHN): 2.5 µM (inactive)
- GI50 (U-251): 9.4 µM (inactive)
- GI50 (MDA-MB-435): 3.7 µM (inactive)
- GI50 (SF-268): 7.33 µM (inactive)
- GI50 (KM12): 3.34 µM (inactive)
- GI50 (COLO 205): 1.51 µM (inactive)
- GI50 (SR): 6.32 µM (inactive)
- GI50 (LOX IMVI): 1.45 µM (inactive)
- GI50 (DU-145): 2.44 µM (inactive)
- GI50 (MDA-MB-231): 3.61 µM (inactive)
- GI50 (NCI-H226): 8.17 µM (inactive)
- GI50 (A498): 2.38 µM (inactive)
- GI50 (SK-MEL-5): 1.71 µM (inactive)
- GI50 (OVCAR-5): 8.07 µM (inactive)
- GI50 (MDA-N): 2.05 µM (inactive)
- GI50 (NCI/ADR-RES): 2.96 µM (inactive)
- GI50 (MCF7): 0.413 µM (active)

SMILES: COC(=O)c1sc(=S)sc1SCc1cccc(CSc2sc(=S)sc2C(=O)OC)c1
- GI50 (SK-MEL-28): > 100 µM (inactive)
- GI50 (786-0): 33.4 µM (inactive)
- GI50 (ACHN): 28.8 µM (inactive)
- GI50 (U-251): 25.3 µM (inactive)
- GI50 (MDA-MB-435): > 100 µM (inactive)
- GI50 (SF-268): 44.5 µM (inactive)
- GI50 (KM12): > 100 µM (inactive)
- GI50 (COLO 205): > 100 µM (inactive)
- GI50 (SR): > 100 µM (inactive)
- GI50 (LOX IMVI): > 100 µM (inactive)
- GI50 (DU-145): > 100 µM (inactive)
- GI50 (MDA-MB-231): 36.6 µM (inactive)
- GI50 (A498): 24.8 µM (inactive)
- GI50 (SK-MEL-5): > 100 µM (inactive)
- GI50 (OVCAR-5): > 100 µM (inactive)
- GI50 (MDA-N): > 100 µM (inactive)
- GI50 (NCI/ADR-RES): > 100 µM (inactive)
- GI50 (MCF7): > 100 µM (inactive)
- GI50 (RXF 393): 16.2 µM (inactive)

SMILES: COC(=O)C1(N2CCOCC2)CCC([C@@H](c2ccccc2)C(C)[N+](=O)[O-])C1 (some centres undefined)
- GI50 (SK-MEL-28): > 100 µM (inactive)
- GI50 (786-0): 75.9 µM (inactive)
- GI50 (ACHN): > 100 µM (inactive)
- GI50 (U-251): > 100 µM (inactive)
- GI50 (MDA-MB-435): > 100 µM (inactive)
- GI50 (SF-268): > 100 µM (inactive)
- GI50 (KM12): > 100 µM (inactive)
- GI50 (COLO 205): 64.6 µM (inactive)
- GI50 (SR): 20.8 µM (inactive)
- GI50 (LOX IMVI): 39 µM (inactive)
- GI50 (DU-145): 19.7 µM (inactive)
- GI50 (MDA-MB-231): > 100 µM (inactive)
- GI50 (NCI-H226): > 100 µM (inactive)
- GI50 (A498): > 100 µM (inactive)
- GI50 (SK-MEL-5): > 100 µM (inactive)
- GI50 (OVCAR-5): > 100 µM (inactive)
- GI50 (MDA-N): > 100 µM (inactive)
- GI50 (NCI/ADR-RES): > 100 µM (inactive)
- GI50 (MCF7): 21.9 µM (inactive)

SMILES: COC(=O)/C(=C\c1cn(C(C)=O)c2ccccc12)P(=O)(OC)OC
- GI50 (SK-MEL-28): 24.1 µM (inactive)
- GI50 (786-0): 17.6 µM (inactive)
- GI50 (ACHN): 11.8 µM (inactive)
- GI50 (U-251): 15.8 µM (inactive)
- GI50 (MDA-MB-435): 21.2 µM (inactive)
- GI50 (SF-268): 22.4 µM (inactive)
- GI50 (COLO 205): 16.8 µM (inactive)
- GI50 (SR): > 100 µM (inactive)
- GI50 (LOX IMVI): 5.55 µM (inactive)
- GI50 (DU-145): 13.4 µM (inactive)
- GI50 (MDA-MB-231): 11.7 µM (inactive)
- GI50 (NCI-H226): 38.4 µM (inactive)
- GI50 (A498): 17.3 µM (inactive)
- GI50 (SK-MEL-5): 13.4 µM (inactive)
- GI50 (MDA-N): 15.1 µM (inactive)
- GI50 (NCI/ADR-RES): 23.8 µM (inactive)
- GI50 (MCF7): 13.6 µM (inactive)
- GI50 (RXF 393): 16.7 µM (inactive)

SMILES: COC(=O)C(Cc1ccccc1)NS(=O)(=O)c1ccc(-c2c3nc(c(-c4ccc(S(=O)(=O)NC(Cc5ccccc5)C(=O)OC)cc4)c4ccc([nH]4)c(-c4ccc(S(=O)(=O)NC(Cc5ccccc5)C(=O)OC)cc4)c4nc(c(-c5ccc(S(=O)(=O)NC(Cc6ccccc6)C(=O)OC)cc5)c5ccc2[nH]5)C=C4)C=C3)cc1 (centres undefined)
- GI50 (SK-MEL-28): > 100 µM (inactive)
- GI50 (786-0): 53.6 µM (inactive)
- GI50 (ACHN): > 100 µM (inactive)
- GI50 (U-251): 28.1 µM (inactive)
- GI50 (MDA-MB-435): > 100 µM (inactive)
- GI50 (SF-268): > 100 µM (inactive)
- GI50 (KM12): > 100 µM (inactive)
- GI50 (COLO 205): > 100 µM (inactive)
- GI50 (SR): > 100 µM (inactive)
- GI50 (LOX IMVI): > 100 µM (inactive)
- GI50 (DU-145): > 100 µM (inactive)
- GI50 (MDA-MB-231): > 100 µM (inactive)
- GI50 (A498): > 100 µM (inactive)
- GI50 (SK-MEL-5): > 100 µM (inactive)
- GI50 (OVCAR-5): > 100 µM (inactive)
- GI50 (MDA-N): > 100 µM (inactive)
- GI50 (NCI/ADR-RES): > 100 µM (inactive)
- GI50 (MCF7): > 100 µM (inactive)
- GI50 (RXF 393): 39.4 µM (inactive)

Reference: ChEMBL document CHEMBL1201862, “PubChem BioAssay data set” (2004)
